{"source": "paper PMC4593073", "about": "“Non-invasive imaging and cellular tracking of pulmonary emboli by near-infrared fluorescence and positron-emission tomography” (Nature Communications, 2015)", "key": {"[1]": {"assay": "Acute toxicology: serum panel of hepatic and renal functions", "type": "in vivo, C57BL/6J mice", "design": "Phosphorus / Calcium: unit not given here", "conditions": "mean±s.e.m., n=3", "method": "To address the safety profile of this novel functional imaging platform, PAR1–RIP probe was administered in C57BL/6J mice at a concentration threefold higher than used for the imaging studies (150 picomoles, 100 μl). […] The serum was pipetted into clean tubes and frozen before shipment to IDEXX BioResearch (Sacramento, CA) for a comprehensive panel of hepatic and renal functions. All tests were performed using an Olympus 5400 analyser. Measurements of the following enzymes and electrolytes were provided: alkaline phosphatase, alanine aminotransferase, aspartate aminotransferase, creatine phosphokinase, total protein, direct bilirubin, indirect bilirubin, total bilirubin, globulin, blood urea nitrogen, creatinine, cholesterol, glucose, calcium, phosphorus, bicarbonate, chloride, potassium, sodium and haemolysis index.\nToxicology results are presented as mean±s.e.m. Data were analysed using GraphPad Prism (GraphPad Software Inc., San Diego, CA) and statistical differences among experimental groups of animals were detected using one-way analysis of variance (ANOVA) followed by Dunnett’s post-test; P<0.05 was considered statistically significant."}, "[2]": {"target": "T1, thrombin (factor IIa) (Homo sapiens, UniProt P00734)", "T1 construct": "Human clotting factors IIa (thrombin), VIIa, IXa, Xa, XIa, plasmin and aPC; purchased Haematologic Technologies", "assay": "Peptide kinetics: proteolysis of the probe followed by HPLC/mass spectrometry", "type": "biochemical", "conditions": "HPLC, 37 °C, PBS pH 7.4, mean±s.d., n=3", "description": "Comparison of the rates of protease-mediated hydrolysis of a tripeptide chromogenic substrate (P3–P1), quenched oligopeptide substrate (P4–P4′) and our PAR1–RIP probe (P4–P14′) emphasize the value of a larger surface area of interaction between enzyme and substrate in RIP probes. When substrates have limited potential contacts with the protease, and the majority of them are shared with homologous enzymes, their turnover is non-specific. For example, the chromogenic substrate d–Phe–Pro–Arg–paranitroanilide is not only an excellent substrate for thrombin but also for many other proteases (Fig. 3f). As substrate length increases to include four additional residues on the prime side of the scissile bond, specificity increases 10-fold (Fig. 3g). Inclusion of the 10 amino acids responsible for exosite binding to thrombin further increases the relative specificity eightfold and reduces the KM to a physiologically relevant value of 0.2±0.1 μM (mean±s.d., n=3; Fig. 3h). […]\nHuman clotting factors IIa (thrombin), VIIa, IXa, Xa, XIa, plasmin and aPC were obtained from Haematologic Technologies (Vermont, USA). Kinetics studies of probe digestion were measured by HPLC over the course of 1 h at 37 °C, using 10 nM of enzyme and 1 μM of PAR1–RIP in PBS (pH 7.4). […]"}, "[3]": {"system": "Cells grown on plastic", "assay": "Uptake of the cell viability dye DRAQ7", "type": "cell-based", "conditions": "50 μM, 2 hrs", "method": "Discrimination between on and off states in PAR1–RIP observed in vitro translated in vivo. To gauge the interaction of RIP probes with cells, we measured their toxicity at ∼6- to 600-fold excess of the intended use in vivo. […] Inclusion of the highly specific thrombin inhibitor hirudin blocked these protease-dependent effects and confirmed the key role for thrombin in this process. Cells grown on plastic were incubated with […] pro-peptide to confirm that uptake of the fluorescent dye DRAQ7 only occurred in the protease-treated form (Supplementary Fig. 3a) not the pro-peptide alone (Supplementary Fig. 3b). Concentrations required to mediate toxicity in cell culture exceed those used in animal studies described below by several orders of magnitude, but provide a useful readout nonetheless.\nSupplementary Figure 3 – The cellular effects of the active PAR1-RIP peptide. High-doses (50 μM) of the cleaved PAR1-RIP lead to\nconcentrations for extended periods of time (2 hrs). Scale bars, 20 µm.\n(1 picture or pasted object on this page, not shown here)"}, "[4]": {"conditions": "mouse serum 6 hs after 150 picomoles"}, "[5]": {"conditions": "mouse serum 6 hs after 150 picomoles, marked *"}, "[6]": {"conditions": "mouse serum 48 hs after 150 picomoles"}, "[7]": {"conditions": "mouse serum 72hs after 150 picomoles"}, "[8]": {"conditions": "mouse serum 72hs after 150 picomoles, marked *"}}, "note": "Where no end group is shown, it is not given here.", "data": [{"sequence": "FVQWFSKFLGKLLPRSFLLQDPNDQYEPF [PAR1–RIP]", "values": [{"measurement": "Alanine Aminotransferase (ALT)", "setting": "[1]; [4]", "result": "29.7±1.4", "unit": "U/L"}, {"measurement": "Albumin", "setting": "[1]; [4]", "result": "2.7 ± 0.1", "unit": "g/dL"}, {"measurement": "Aspartate Aminotransferase (AST)", "setting": "[1]; [4]", "result": "61.7 ± 4.0", "unit": "U/L"}, {"measurement": "Blood Urea Nitrogen (BUN)", "setting": "[1]; [4]", "result": "27.0 ± 2.6", "unit": "mg/dL"}, {"measurement": "Calcium", "setting": "[1]; [4]", "result": "9.1 ± 0.1"}, {"measurement": "Chloride", "setting": "[1]; [4]", "result": "116.0 ± 0.6", "unit": "mEq/ L"}, {"measurement": "Cholesterol", "setting": "[1]; [4]", "result": "79 ± 0.6", "unit": "mg/dL"}, {"measurement": "Creatinine", "setting": "[1]; [4]", "result": "0.2 ± 0.0", "unit": "mg/dL"}, {"measurement": "Creatinine Phosphokinase (CPK)", "setting": "[1]; [4]", "result": "144.7 ± 27.4", "unit": "U/L"}, {"measurement": "Direct Bilirubin", "setting": "[1]; [4]", "result": "0.0 ± 0.0", "unit": "mg/dL"}, {"measurement": "Globulin", "setting": "[1]; [4]", "result": "1.9 ± 0.0", "unit": "g/dL"}, {"measurement": "Glucose", "setting": "[1]; [4]", "result": "238.7 ± 2.9", "unit": "mg/dL"}, {"measurement": "Indirect Bilirubin", "setting": "[1]; [4]", "result": "0.1 ± 0.0", "unit": "mg/dL"}, {"measurement": "Phosphorus", "setting": "[1]; [4]", "result": "6.9 ± 0.2"}, {"measurement": "Potassium", "setting": "[1]; [4]", "result": "4.7 ± 0.1", "unit": "mEq/ L"}, {"measurement": "Sodium", "setting": "[1]; [4]", "result": "152.3 ± 0.3", "unit": "mEq/ L"}, {"measurement": "Total Bilirubin", "setting": "[1]; [4]", "result": "0.1 ± 0.0", "unit": "mg/dL"}, {"measurement": "Total Protein", "setting": "[1]; [4]", "result": "4.6 ± 0.1", "unit": "g/dL"}, {"measurement": "Alkaline phosphatase", "setting": "[1]; [5]", "result": "149.7 ± 12.8", "unit": "U/L"}, {"measurement": "Bicarbonate", "setting": "[1]; [5]", "result": "13.3 ± 0.3", "unit": "mEq/ L"}, {"measurement": "Alanine Aminotransferase (ALT)", "setting": "[1]; [6]", "result": "26.3 ± 0.3", "unit": "U/L"}, {"measurement": "Albumin", "setting": "[1]; [6]", "result": "2.6 ± 0.1", "unit": "g/dL"}, {"measurement": "Alkaline phosphatase", "setting": "[1]; [6]", "result": "120.7 ± 6.4", "unit": "U/L"}, {"measurement": "Aspartate Aminotransferase (AST)", "setting": "[1]; [6]", "result": "57.6 ± 6.3", "unit": "U/L"}, {"measurement": "Bicarbonate", "setting": "[1]; [6]", "result": "15.0 ± 0.0", "unit": "mEq/ L"}, {"measurement": "Blood Urea Nitrogen (BUN)", "setting": "[1]; [6]", "result": "23.7 ± 1.4", "unit": "mg/dL"}, {"measurement": "Calcium", "setting": "[1]; [6]", "result": "9.0 ± 0.1"}, {"measurement": "Chloride", "setting": "[1]; [6]", "result": "110.3 ± 0.8", "unit": "mEq/ L"}, {"measurement": "Creatinine", "setting": "[1]; [6]", "result": "0.2 ± 0.0", "unit": "mg/dL"}, {"measurement": "Creatinine Phosphokinase (CPK)", "setting": "[1]; [6]", "result": "150.3 ± 38.0", "unit": "U/L"}, {"measurement": "Direct Bilirubin", "setting": "[1]; [6]", "result": "0.1 ± 0.0", "unit": "mg/dL"}, {"measurement": "Globulin", "setting": "[1]; [6]", "result": "2.0 ± 0.1", "unit": "g/dL"}, {"measurement": "Glucose", "setting": "[1]; [6]", "result": "203.0 ± 3.5", "unit": "mg/dL"}, {"measurement": "Indirect Bilirubin", "setting": "[1]; [6]", "result": "0.1 ± 0.0", "unit": "mg/dL"}, {"measurement": "Phosphorus", "setting": "[1]; [6]", "result": "6.8 ± 0.2"}, {"measurement": "Potassium", "setting": "[1]; [6]", "result": "4.6 ± 0.1", "unit": "mEq/ L"}, {"measurement": "Sodium", "setting": "[1]; [6]", "result": "153.3 ± 0.9", "unit": "mEq/ L"}, {"measurement": "Total Bilirubin", "setting": "[1]; [6]", "result": "0.12 ± 0.0", "unit": "mg/dL"}, {"measurement": "Total Protein", "setting": "[1]; [6]", "result": "4.6 ± 0.1", "unit": "g/dL"}, {"measurement": "Cholesterol", "setting": "[1]; mouse serum 48 hs after 150 picomoles, marked *", "result": "84.3 ± 3.5", "unit": "mg/dL"}, {"measurement": "Alanine Aminotransferase (ALT)", "setting": "[1]; [7]", "result": "20.0±1.0", "unit": "U/L"}, {"measurement": "Albumin", "setting": "[1]; [7]", "result": "2.6 ± 0.0", "unit": "g/dL"}, {"measurement": "Alkaline phosphatase", "setting": "[1]; [7]", "result": "107.0 ± 7.8", "unit": "U/L"}, {"measurement": "Aspartate Aminotransferase (AST)", "setting": "[1]; [7]", "result": "53.7 ± 12.2", "unit": "U/L"}, {"measurement": "Blood Urea Nitrogen (BUN)", "setting": "[1]; [7]", "result": "26.7 ± 1.8", "unit": "mg/dL"}, {"measurement": "Calcium", "setting": "[1]; [7]", "result": "9.1 ± 0.2"}, {"measurement": "Chloride", "setting": "[1]; [7]", "result": "110.3 ± 0.3", "unit": "mEq/ L"}, {"measurement": "Cholesterol", "setting": "[1]; [7]", "result": "82.7 ± 1.7", "unit": "mg/dL"}, {"measurement": "Creatinine", "setting": "[1]; [7]", "result": "0.2 ± 0.0", "unit": "mg/dL"}, {"measurement": "Creatinine Phosphokinase (CPK)", "setting": "[1]; [7]", "result": "156.3 ± 67.7", "unit": "U/L"}, {"measurement": "Direct Bilirubin", "setting": "[1]; [7]", "result": "0.0 ± 0.0", "unit": "mg/dL"}, {"measurement": "Globulin", "setting": "[1]; [7]", "result": "1.9 ± 0.1", "unit": "g/dL"}, {"measurement": "Glucose", "setting": "[1]; [7]", "result": "268.0 ± 20.1", "unit": "mg/dL"}, {"measurement": "Indirect Bilirubin", "setting": "[1]; [7]", "result": "0.1 ± 0.0", "unit": "mg/dL"}, {"measurement": "Phosphorus", "setting": "[1]; [7]", "result": "7.4 ± 0.2"}, {"measurement": "Potassium", "setting": "[1]; [7]", "result": "4.9 ± 0.2", "unit": "mEq/ L"}, {"measurement": "Total Bilirubin", "setting": "[1]; [7]", "result": "0.1 ± 0.0", "unit": "mg/dL"}, {"measurement": "Total Protein", "setting": "[1]; [7]", "result": "4.6 ± 0.1", "unit": "g/dL"}, {"measurement": "Bicarbonate", "setting": "[1]; [8]", "result": "18.3 ± 0.3", "unit": "mEq/ L"}, {"measurement": "Sodium", "setting": "[1]; [8]", "result": "150 ± 0.0", "unit": "mEq/ L"}, {"measurement": "Km", "setting": "[2]", "result": "0.2 ± 0.1", "unit": "µM"}]}, {"sequence": "FVQWFSKFLGKLLPR [thrombin-treated PAR1–RIP]", "values": [{"measurement": "uptake of cell viability dye DRAQ7", "setting": "[3]", "result": "uptake of cell viability dyes including DRAQ7"}]}]}
